Measured values from US20230159537A1, “COMPOUND, PREPARATION METHOD THEREOF, AND USE THEREOF IN PREPARATION OF ANTI-CANCER DRUG” (TIANJIN JIKUN MEDICAL TECHNOLOGY CO., LTD., priority 2020, published 2023).

Experiments:
[1] = target: T1, FGFR3 (Homo sapiens, UniProt P22607); test: HTRF enzyme activity test, FGFR3; assay type: biochemical
T1 construct: made in house; host or cells: Escherichia coli
Experimental: In the present disclosure, the homogeneous time-resolved fluorescence (HTRF) technology was used to evaluate an inhibitory effect of a compound on the four subtypes FGFR1, FGFR2, FGFR3, and FGFR4. FGFR1, FGFR2, FGFR3, and FGFR4 prokaryotic expression vectors were first constructed; and when the prokaryotic expression vectors were identified as correct, FGFR proteins were expressed and purified on a large scale in an Escherichia coli (E. coli) system, and protein concentrations were determined. Resulting proteins were stored in aliquots. Before an enzyme activity test was started, cisbio HTRF KinEA (62TK0PEB) was used to pre-dilute each component required in an enzyme activity system with an enzyme activity buffer to a required working concentration. A 384-well plate (66PL384025) was prepared, 5 μL of a protein solution, 1 μL of a compound, and 2 μL of a substrate were added to each well, and 2 μL of ATP was finally added to initiate a reaction. Three parallel experiments were set for each concentration. […] The 384-well plate was sealed and incubated at room temperature for about 1 h. […] Finally, the TECAN infinite M1000PRO multi-function microplate reader was used to detect a fluorescence signal, an inhibition rate was calculated, and an IC50 value was fitted with GraphPad Prism 7.0.

[2] = tested on: A549; test: cells; conditions: Homo sapiens, A549, 96 h, read-out: Anti-proliferation IC50 A549
[3] = tested on: Huh-7; test: MTT cell proliferation assay, Huh-7; assay type: cell-based; conditions: tumor cells with normal FGFR expression (Huh-7, A549 of Table 2)

T1 sequence (P22607 23-806): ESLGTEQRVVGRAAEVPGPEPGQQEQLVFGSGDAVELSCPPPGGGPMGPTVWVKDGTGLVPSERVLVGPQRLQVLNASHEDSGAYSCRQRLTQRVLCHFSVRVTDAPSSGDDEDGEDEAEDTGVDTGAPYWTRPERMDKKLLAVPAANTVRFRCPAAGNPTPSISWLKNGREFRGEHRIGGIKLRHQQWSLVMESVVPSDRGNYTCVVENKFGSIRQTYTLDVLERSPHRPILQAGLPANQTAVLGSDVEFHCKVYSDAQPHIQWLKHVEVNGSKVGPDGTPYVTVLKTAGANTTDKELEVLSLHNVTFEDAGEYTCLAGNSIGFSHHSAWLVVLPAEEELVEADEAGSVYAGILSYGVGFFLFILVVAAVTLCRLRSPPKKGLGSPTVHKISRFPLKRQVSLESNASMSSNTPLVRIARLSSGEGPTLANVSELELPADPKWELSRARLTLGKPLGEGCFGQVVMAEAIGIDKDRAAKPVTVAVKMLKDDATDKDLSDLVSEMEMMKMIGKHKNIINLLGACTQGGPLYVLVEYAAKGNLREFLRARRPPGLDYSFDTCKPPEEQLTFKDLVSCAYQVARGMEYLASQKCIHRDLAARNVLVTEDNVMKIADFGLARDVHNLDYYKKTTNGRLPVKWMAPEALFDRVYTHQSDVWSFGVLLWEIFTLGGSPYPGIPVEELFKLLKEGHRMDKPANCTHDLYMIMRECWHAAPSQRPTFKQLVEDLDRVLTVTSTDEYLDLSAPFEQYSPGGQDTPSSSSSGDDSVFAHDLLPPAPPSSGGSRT

SMILES	IC50 [1] [nM]	IC50 [2] [µM]	inhibitory effect on tumor cells with normal FGFR expression (in words) [3]
C=CC(=O)N1CCN(CCCCCn2nc(-c3cccc(OCc4ccccc4)c3)c3c(N)ncnc32)CC1 [Compound 26]	> 5000		
COc1cc(OC)cc(-c2nn(CCCCCN3CCN(C(=O)/C=C/C(F)(F)F)CC3)c3ncnc(N)c23)c1 [Compound 36]		> 10	no obvious inhibitory effect
